Experiment: phase II study in acute leukemia: toxicity (NCI CTCAE version 3.0)
Format: in vivo, human
Description: The study was approved by the Institutional Review Board (IRB) at each participating institution and was conducted in accordance with the Declaration of Helsinki and in compliance with International Conference on Harmonization Good Clinical Practice Guidelines. Written informed consent was obtained from all patients before study enrollment.
Each cycle lasted 21 days. Patient could continue treatment on the study in the absence of disease progression or unacceptable toxicity. The next cycle of therapy could start if non-hematologic toxicity from previous cycle recovered to ≤grade 1, and dose delay of up to 3 weeks was allowed for recovery. Permanent dose reduction was required for any ≥grade 3 clinically significant non-hematologic adverse event (70 mg/m^2 → 50 mg/m^2; 50 mg/m^2 → 40 mg/m^2; 40 mg/m^2 → 30 mg/m^2; 30 mg/m^2 → discontinue). To allow for continued treatment of subjects whose cytopenias were due to leukemia and not due to drug toxicity, subsequent cycles of treatment were allowed if absolute neutrophil count (ANC) ≥0.5 × 10^9/L or for ANC <0.5 × 10^9/L but no more than 20 % below the baseline pretreatment levels and platelet count ≥20 × 10^9/L or platelets <20 × 10^9/L but no more than 20 % below the baseline pretreatment levels. Anti-emetic prophylaxis including serotonin-receptor antagonist, metoclopramide, or prochloperazine with or without dexamethasone was allowed. […] Dexamethasone 20 mg IV was given early if symptoms of cytokine release syndrome were observed.
Response was assessed by bone marrow (BM) examination on day 21 of cycles 1 and 2, and every 6 weeks thereafter until complete remission or progressive disease (PD). Response was determined according to the revised recommendations of the International Working Group (IWG) for AML [33]. Toxicities were graded according to the National Cancer Institute Common Terminology Criteria for Adverse Events (NCI CTCAE), version 3.0 (http://ctep.cancer.gov/protocolDevelopment/electronic_applications/docs/ctcaev3.pdf). Hematologic and chemistry profiles were monitored on day 1 and 2 of each cycle or until resolution of acute toxicities and subsequently at least once a week or more frequently depending on the individual patient’s needs.

[1] = dinaciclib-related hematologic toxicity

CCc1cnn2c(NCc3ccc[n+]([O-])c3)cc(N3CCCC[C@H]3CCO)nc12 [Dinaciclib]
1 (10) patients (%): Dehydration, All (%) (Cycle 2 n = 10) | Hyperbilirubinemia, All (%) (Cycle 2 n = 10) | Hyperkalemia, All (%) (Cycle 2 n = 10) | Hyperphosphatemia, All (%) (Cycle 2 n = 10) | Hypoalbuminemia, All (%) (Cycle 2 n = 10) | Increased ALT, All (%) (Cycle 2 n = 10) | Increased AST, All (%) (Cycle 2 n = 10) | Pneumonia, All (%) (Cycle 2 n = 10) | Stomatitis, All (%) (Cycle 2 n = 10) | Syncope, All (%) (Cycle 2 n = 10)
2 patients: Acute renal failure, Grade ≥3 (Cycle 1 n = 20) | Bacteremia, Grade ≥3 (Cycle 1 n = 20) | Fatigue, Grade ≥3 (Cycle 1 n = 20) | Hyperglycemia, Grade ≥3 (Cycle 1 n = 20) | Hyperkalemia, Grade ≥3 (Cycle 1 n = 20) | Increased LDH, Grade ≥3 (Cycle 1 n = 20) | Pneumonia, Grade ≥3 (Cycle 1 n = 20)
40%: ≥grade 3 leukopenia, patients [1]
30%: TLS-associated hyperphosphatemia, patients (Cairo-Bishop criteria, cycle 1)
14 (70) patients (%): Diarrhea, All (%) (Cycle 1 n = 20)
2 (33) patients (%): Diarrhea, All (%) (Cycle 3 n = 6) | Vomiting, All (%) (Cycle 3 n = 6)
9 (45) patients (%): Vomiting, All (%) (Cycle 1 n = 20)
half of the patients: patients with at least one significant TLS-associated laboratory abnormality (Cairo-Bishop criteria, cycle 1)
6 (30) patients (%): Fatigue, All (%) (Cycle 1 n = 20) | Hypocalcemia, All (%) (Cycle 1 n = 20) | Hypotension, All (%) (Cycle 1 n = 20)
25%: TLS-associated hyperkalemia, patients (Cairo-Bishop criteria, cycle 1) | TLS-associated hypocalcemia, patients (Cairo-Bishop criteria, cycle 1) | ≥grade 3 anemia, patients [1] | ≥grade 3 febrile neutropenia, patients [1]
70%: Grade 1 and 2 diarrhea, patients (in vivo)
3 (15) patients (%): Hyperkalemia, All (%) (Cycle 1 n = 20) | Increased creatinine, All (%) (Cycle 1 n = 20) | Tumor lysis sy, All (%) (Cycle 1 n = 20)
1 (5) patients (%): Anorexia, All (%) (Cycle 1 n = 20) | Dehydration, All (%) (Cycle 1 n = 20) | Hypertension, All (%) (Cycle 1 n = 20) | Stomatitis, All (%) (Cycle 1 n = 20) | Syncope, All (%) (Cycle 1 n = 20)
1 (17) patients (%): Anorexia, All (%) (Cycle 3 n = 6) | Cytokine release sy, All (%) (Cycle 3 n = 6) | Fatigue, All (%) (Cycle 3 n = 6) | Hypertension, All (%) (Cycle 3 n = 6) | Increased ALT, All (%) (Cycle 3 n = 6) | Nausea, All (%) (Cycle 3 n = 6)
75%: patients with grade ≥3 treatment-related adverse events (15 of 20 patients)
7 (70) patients (%): Diarrhea, All (%) (Cycle 2 n = 10)
5 (25) patients (%): Hyperphosphatemia, All (%) (Cycle 1 n = 20)
8 (40) patients (%): Increased AST, All (%) (Cycle 1 n = 20) | Nausea, All (%) (Cycle 1 n = 20)
20%: Grade ≥3 fatigue, patients (4 patients) | ≥grade 3 thrombocytopenia, patients [1]
4 (20) patients (%): Hyperglycemia, All (%) (Cycle 1 n = 20) | Hypoalbuminemia, All (%) (Cycle 1 n = 20) | Increased ALT, All (%) (Cycle 1 n = 20)
10%: TLS-associated hyperuricemia, patients (Cairo-Bishop criteria, cycle 1) | ≥grade 3 neutropenia, patients [1]
3 patients: Increased AST, Grade ≥3 (Cycle 1 n = 20) | Tumor lysis sy, Grade ≥3 (Cycle 1 n = 20)
1 patients: Dehydration, Grade ≥3 (Cycle 1 n = 20) | Diarrhea, Grade ≥3 (Cycle 1 n = 20) | Hyperphosphatemia, Grade ≥3 (Cycle 1 n = 20) | Hypocalcemia, Grade ≥3 (Cycle 1 n = 20) | Hyponatremia, Grade ≥3 (Cycle 1 n = 20) | Hypotension, Grade ≥3 (Cycle 1 n = 20) | Increased creatinine, Grade ≥3 (Cycle 1 n = 20) | Nausea, Grade ≥3 (Cycle 1 n = 20) | Syncope, Grade ≥3 (Cycle 1 n = 20) | Diarrhea, Grade ≥3 (Cycle 2 n = 10) | Fatigue, Grade ≥3 (Cycle 2 n = 10) | Stomatitis, Grade ≥3 (Cycle 2 n = 10) | Syncope, Grade ≥3 (Cycle 2 n = 10) | Cytokine release sy, Grade ≥3 (Cycle 3 n = 6) | Fatigue, Grade ≥3 (Cycle 3 n = 6)
3 (30) patients (%): Nausea, All (%) (Cycle 2 n = 10)
2 (10) patients (%): Acute renal failure, All (%) (Cycle 1 n = 20) | Bacteremia, All (%) (Cycle 1 n = 20) | Cytokine release sy, All (%) (Cycle 1 n = 20) | Hyperbilirubinemia, All (%) (Cycle 1 n = 20) | Hypokalemia, All (%) (Cycle 1 n = 20) | Hyponatremia, All (%) (Cycle 1 n = 20) | Increased LDH, All (%) (Cycle 1 n = 20) | Pneumonia, All (%) (Cycle 1 n = 20) | Sinus Tachycardia, All (%) (Cycle 1 n = 20)
2 (20) patients (%): Fatigue, All (%) (Cycle 2 n = 10) | Hypotension, All (%) (Cycle 2 n = 10) | Vomiting, All (%) (Cycle 2 n = 10)

From publication PMC3784060 (Cancer Chemotherapy and Pharmacology, 2013)
